Assay results: paper PMC11200585, “Prospects for Prostate Cancer Chemotherapy: Cytotoxic Evaluation and Mechanistic Insights of Quinolinequinones with ADME/PK Profile” (Biomedicines, 2024)

Experiments:
Type in all cases: cell-based, human
[1] = tested on: HL-60(TB); assay: NCI-60 one-dose screen (leukemia); settings: 10 µM single dose, 48 h
[2] = tested on: MOLT-4; assay: NCI-60 one-dose screen (leukemia); settings: 10 µM single dose, 48 h
[3] = tested on: A549/ATCC; assay: NCI-60 one-dose screen (non-small cell lung cancer); settings: 10 µM single dose, 48 h
Method: (§1) The obtained quinolinequinones were submitted to NCI, Bethesda, USA, and, as per standard protocol of NCI, all compounds were evaluated for their antiproliferative activity at single-dose assay (10 µM concentration in DMSO) on a panel of 60 cancer cell lines derived from leukemia, non-small-cell lung, colon, CNS, melanoma, ovarian, renal, prostate, and breast, as per protocol. Tested compounds were added to the microtiter culture plates followed by incubation for 48 h at 37 °C. Sulforhodamine B (SRB), a protein-binding dye, is used for endpoint determination. The percent of the growth of the treated cells was determined in comparison to the untreated control cells and the results of each tested compound were reported. Data from one-dose experiments pertain to the percentage growth at 10 μM [16, 17, 18].

[4] = tested on: EKVX; assay: as above; settings: 10 µM single dose
Method: as §1

[5] = tested on: HOP-62; assay: as above; settings: 10 µM single dose, 48 h
Method: as §1

[6] = tested on: HOP-92; assay: as above; settings: 10 µM single dose, 48 h
Method: as §1

[7] = tested on: NCI-H226; assay: as above; settings: 10 µM single dose
Method: as §1

[8] = tested on: NCI-H23; assay: as above; settings: 10 µM single dose, 48 h
Method: as §1

[9] = tested on: NCI-H322M; assay: as above; settings: 10 µM single dose, 48 h
Method: as §1

[10] = tested on: NCI-H460; assay: as above; settings: 10 µM single dose, 48 h
Method: as §1

[11] = tested on: NCI-H522; assay: as above; settings: 10 µM single dose, 48 h
Method: as §1

[12] = tested on: HS 578T; assay: NCI-60 one-dose screen (breast cancer); settings: 10 µM single dose, 48 h
Method: as §1

[13] = tested on: MDA-MB-468; assay: NCI-60 one-dose screen (breast cancer); settings: 10 µM single dose, 48 h
Method: as §1

[14] = tested on: T-47D; assay: NCI-60 one-dose screen (breast cancer); settings: 10 µM single dose, 48 h
Method: as §1

[15] = tested on: CCRF-CEM; assay: NCI-60 five-dose assay (leukemia); settings: 48 h, SRB
[16] = tested on: HL-60(TB); assay: NCI-60 five-dose assay (leukemia); settings: 48 h, SRB
[17] = tested on: MOLT-4; assay: NCI-60 five-dose assay (leukemia); settings: 48 h, SRB
[18] = tested on: EKVX; assay: NCI-60 five-dose assay (non-small cell lung cancer); settings: 48 h, SRB
[19] = tested on: HOP-62; assay: as above; settings: 48 h, SRB
[20] = tested on: HCC-2998; assay: NCI-60 five-dose assay (colon cancer); settings: 48 h, SRB
[21] = tested on: HCT-116; assay: NCI-60 five-dose assay (colon cancer); settings: 48 h, SRB
[22] = tested on: HT29; assay: NCI-60 five-dose assay (colon cancer); settings: SRB
[23] = tested on: KM12; assay: NCI-60 five-dose assay (colon cancer); settings: 48 h, SRB
[24] = tested on: SW-620; assay: NCI-60 five-dose assay (colon cancer); settings: 48 h, SRB
[25] = tested on: LOX IMVI; assay: NCI-60 five-dose assay (melanoma); settings: 48 h, SRB
[26] = tested on: SK-MEL-28; assay: NCI-60 five-dose assay (melanoma); settings: 48 h, SRB
[27] = tested on: OVCAR-4; assay: NCI-60 five-dose assay (ovarian cancer); settings: 48 h, SRB
[28] = tested on: OVCAR-5; assay: NCI-60 five-dose assay (ovarian cancer); settings: 48 h, SRB
[29] = tested on: SK-OV-3; assay: NCI-60 five-dose assay (ovarian cancer); settings: 48 h, SRB
[30] = tested on: A498; assay: NCI-60 five-dose assay (renal cancer); settings: 48 h, SRB
[31] = tested on: CAKI-1; assay: NCI-60 five-dose assay (renal cancer); settings: 48 h, SRB
[32] = tested on: PC-3; assay: NCI-60 five-dose assay (prostate cancer); settings: 48 h, SRB
[33] = tested on: MCF7; assay: NCI-60 five-dose assay (breast cancer); settings: 48 h, SRB
[34] = tested on: MDA-MB-231/ATCC; assay: NCI-60 five-dose assay (breast cancer); settings: 48 h, SRB
[35] = tested on: BT-549; assay: NCI-60 five-dose assay (breast cancer); settings: 48 h, SRB
[36] = tested on: T-47D; assay: NCI-60 five-dose assay (breast cancer); settings: Homo sapiens, T47D, 48 h, SRB
[37] = Homo sapiens, read-out: LC50 (the source's name)

For `COc1ccccc1NC1=C(Cl)C(=O)c2nc(C)ccc2C1=O` [AQQ1], the “GP (growth percentage)” value [1] was −48.05%, the “GP (growth percentage)” value [2] was −39.00% and the “GP (growth percentage)” value [3] was 101.36%. The “GP (growth percentage)” value ([4]; 48 h) was 28.52%, the inhibition at 10 µM ([4]; Homo sapiens) was 71.5% and the “GP (growth percentage)” value [5] was 74.12%. The “GP (growth percentage)” value [6] was −83.81%, the “GP (growth percentage)” value ([7]; 48 h) was 29.65% and the inhibition at 10 µM ([7]; Homo sapiens) was 70.3%. For the same compound, the “GP (growth percentage)” value [8] was −8.37%, the “GP (growth percentage)” value [9] was 71.14% and the “GP (growth percentage)” value [10] was 70.83%. For the same compound, the “GP (growth percentage)” value [11] was −48.50%, the “GP (growth percentage)” value [12] was 72.15% and the “GP (growth percentage)” value [13] was −79.74%. For the same compound, the “GP (growth percentage)” value [14] was −44.73%, the TGI [15] was 8.21 µM and the GI50 ([15]; Homo sapiens) was 1.94 µM. The LC50 (concentration killing 50% of cells) ([15]; Homo sapiens) was greater than 100 µM, the TGI [16] was 3.52 µM and the GI50 ([16]; Homo sapiens) was 1.37 µM. For the same compound, the CC50 [16, 37] was 9.03 µM, the TGI [17] was 8.60 µM and the GI50 ([17]; Homo sapiens) was 2.27 µM. For the same compound, the LC50 ([17]; Homo sapiens) was greater than 100 µM, the TGI [18] was 3.05 µM and the GI50 ([18]; Homo sapiens) was 1.61 µM. For the same compound, the CC50 [18, 37] was 5.78 µM, the TGI [19] was 6.98 µM and the GI50 ([19]; Homo sapiens) was 2.41 µM. For the same compound, the LC50 (concentration killing 50% of cells) ([19]; Homo sapiens) was 37.5 µM, the TGI [20] was 3.46 µM and the GI50 ([20]; Homo sapiens) was 1.87 µM. It also gave an LC50 (concentration killing 50% of cells) ([20]; Homo sapiens) of 6.42 µM, a TGI [21] of 4.16 µM and a GI50 ([21]; Homo sapiens) of 1.53 µM. It also gave an LC50 ([21]; Homo sapiens) of 44.3 µM, a TGI ([22]; 48 h) of 4.49 µM and a GI50 ([22]; Homo sapiens, HT-29, 48 h) of 2.13 µM. It also gave an LC50 (concentration killing 50% of cells) ([22]; Homo sapiens, HT-29, 48 h) of 9.46 µM, a TGI [23] of 3.08 µM and a GI50 ([23]; Homo sapiens) of 1.49 µM. For the same compound, the CC50 [23, 37] was 6.4 µM, the TGI [24] was 3.73 µM and the GI50 ([24]; Homo sapiens) was 1.84 µM. The LC50 ([24]; Homo sapiens) was 7.56 µM, the TGI [25] was 2.36 µM and the GI50 ([25]; Homo sapiens) was 0.952 µM. For the same compound, the LC50 (concentration killing 50% of cells) ([25]; Homo sapiens) was 5.7 µM, the TGI [26] was 3.34 µM and the GI50 ([26]; Homo sapiens) was 1.85 µM. For the same compound, the LC50 ([26]; Homo sapiens) was 6.02 µM, the TGI [27] was 2.49 µM and the GI50 ([27]; Homo sapiens) was 1.21 µM. It also gave an LC50 (concentration killing 50% of cells) ([27]; Homo sapiens) of 5.11 µM, a TGI [28] of 3.42 µM and a GI50 ([28]; Homo sapiens) of 1.86 µM. The LC50 (lethal concentration 50%) ([28]; Homo sapiens) was 6.29 µM, the TGI [29] was 27.5 µM and the GI50 ([29]; Homo sapiens) was 12.6 µM. For the same compound, the LC50 (50% net cell kill) ([29]; Homo sapiens) was 59.8 µM, the TGI [30] was 4.60 µM and the GI50 ([30]; Homo sapiens) was 1.9 µM. The LC50 ([30]; Homo sapiens) was 13.1 µM, the TGI [31] was 2.87 µM and the GI50 ([31]; Homo sapiens) was 1.5 µM. It also gave an LC50 (lethal concentration, 50% net cell kill) ([31]; Homo sapiens) of 5.47 µM, a TGI [32] of 2.58 µM and a GI50 ([32]; Homo sapiens) of 1.21 µM. The CC50 [32, 37] was 5.49 µM, the TGI [33] was 4.49 µM and the GI50 ([33]; Homo sapiens) was 1.78 µM. For the same compound, the LC50 ([33]; Homo sapiens) was greater than 100 µM, the TGI [34] was 2.53 µM and the GI50 ([34]; Homo sapiens) was 1.19 µM. For the same compound, the LC50 (concentration killing 50% of cells) ([34]; Homo sapiens) was 5.37 µM, the TGI [35] was 3.27 µM and the GI50 ([35]; Homo sapiens) was 1.72 µM. For the same compound, the LC50 (concentration giving 50% net cell kill) ([35]; Homo sapiens) was 6.19 µM, the GI50 [36] was 1.37 µM and the CC50 ([36]; read-out: LC50 (the source's name)) was greater than 100 µM.
